In patent publication US9150592B2, “Heterocyclic nuclear hormone receptor modulators” (AbbVie Inc., priority 2012, dated 2015):

Each compound was assayed against T1, Glucocorticoid Receptor (GR) (Homo sapiens, UniProt P04150) (assay: GR Fluorescence Polarization Assay (PolarScreen Glucocorticoid Receptor Competitor Assay, Red)). Details: IC50 class ranges, read-out: GR binding.
T1 construct: purchased Invitrogen P2893
T1 sequence (P04150 1-777): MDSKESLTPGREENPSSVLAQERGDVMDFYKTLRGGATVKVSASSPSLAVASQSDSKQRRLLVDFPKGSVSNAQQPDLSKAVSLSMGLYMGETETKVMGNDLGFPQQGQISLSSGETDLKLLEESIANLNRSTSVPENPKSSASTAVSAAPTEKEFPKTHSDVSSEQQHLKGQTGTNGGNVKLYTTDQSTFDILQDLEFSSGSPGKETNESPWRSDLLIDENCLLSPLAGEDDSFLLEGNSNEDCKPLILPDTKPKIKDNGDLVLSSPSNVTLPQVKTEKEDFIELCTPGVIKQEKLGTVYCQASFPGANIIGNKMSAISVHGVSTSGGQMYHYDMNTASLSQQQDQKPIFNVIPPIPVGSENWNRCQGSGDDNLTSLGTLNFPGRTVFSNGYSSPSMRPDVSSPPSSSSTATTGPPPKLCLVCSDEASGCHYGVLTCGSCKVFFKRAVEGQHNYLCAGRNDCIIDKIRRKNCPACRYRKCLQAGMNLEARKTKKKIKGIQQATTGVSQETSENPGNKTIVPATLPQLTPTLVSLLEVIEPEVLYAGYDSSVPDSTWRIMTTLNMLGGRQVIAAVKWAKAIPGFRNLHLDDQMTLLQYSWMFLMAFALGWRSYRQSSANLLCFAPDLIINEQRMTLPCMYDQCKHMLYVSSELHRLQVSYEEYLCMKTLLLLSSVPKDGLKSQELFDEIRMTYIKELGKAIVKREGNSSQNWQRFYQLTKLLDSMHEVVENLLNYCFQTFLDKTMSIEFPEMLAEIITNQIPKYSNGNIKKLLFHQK
Description: GR Fluorescence Polarization Assay
Fluorescence polarization assays were carried out using the PolarScreen™ Glucocorticoid Receptor Competitor Assay, Red from Invitrogen (P2893). The assay buffer was prepared according to the manufacturer's protocol and used to dilute the fluorescent glucocorticoid and GR. Compounds were prepared and serial diluted 1:4 in DMSO. Compound, fluorescent glucocorticoid and GR were added in a final volume of 20 μL and incubated overnight at 4° C. Fluorescent polarization was measured on the PerkinElmer Envision®.

| SMILES | IC50 [nM] |
| --- | --- |
| Cc1ncccc1NC(=O)c1ccc(C2SCCNc3c2c(-c2ccccn2)nn3C)c(Cl)c1 (centres unmarked) | < 100 |
| Cc1ncccc1NC(=O)N1CCC(C2SCCNc3c2c(-c2ccccn2)nn3C)CC1 (centres unmarked) | > 10000 |
| Cc1ncccc1C(=O)N1CCC(C2SCCNc3c2c(-c2ccccn2)nn3C)CC1 (centres unmarked) | > 10000 |
| Cc1cc(Cl)ccc1C1SCCNc2c1c(-c1ccccn1)nn2C (single isomer, unassigned) | < 100 |
| Cc1cc(Cl)ccc1C1SCC(C)Nc2c1c(-c1ccccn1)nn2C (single isomer, unassigned) | < 100 |
| Cc1cc(C(=O)Nc2cccnc2C)ccc1C1SCC(CO)Nc2c1c(-c1ccccn1)nn2C (single isomer, unassigned) | 1000 to 10000 |
| Cc1ncccc1NC(=O)c1ccc([C@H]2SC[C@H](C)Nc3c2c(-c2ccccn2)nn3C)c(C#N)c1 (single isomer, unassigned) [M.18, 3-cyano-4-(1,7-dimethyl-3-(pyridin-2-yl)-4,6,7,8-tetrahydro-1H-pyrazolo[3,4-e][1,4]thiazepin-4-yl)-N-(2-methylpyridin-3-yl)benzamide] | 1000 to 10000 |
| Cc1ncccc1NC(=O)c1ccc([C@H]2SC[C@@H](C)Nc3c2c(-c2ccccn2)nn3C)c(C#N)c1 (single isomer, unassigned) [M.19, 3-cyano-4-(1,7-dimethyl-3-(pyridin-2-yl)-4,6,7,8-tetrahydro-1H-pyrazolo[3,4-e][1,4]thiazepin-4-yl)-N-(2-methylpyridin-3-yl)benzamide] | 1000 to 10000 |
| Cc1cc(C#N)ccc1C1SCCNc2c1c(-c1ccccn1)nn2C (single isomer, unassigned) [M.21, 3-methyl-4-(1-methyl-3-(pyridin-2-yl)-4,6,7,8-tetrahydro-1H-pyrazolo[3,4-e][1,4]thiazepin-4-yl)benzonitrile] | < 100 |
| CCn1nc(-c2ccccn2)c2c1N[C@@H](C)CS[C@@H]2c1ccc(C#CCO)cc1C (single isomer, unassigned) [M.25, 3-(4-(1-ethyl-7-methyl-3-(pyridin-2-yl)-4,6,7,8-tetrahydro-1H-pyrazolo[3,4-e][1,4]thiazepin-4-yl)-3-methylphenyl)prop-2-yn-1-ol] | 1000 to 10000 |
| CCn1nc(-c2ccccn2)c2c1N[C@H](C)CS[C@@H]2c1ccc(C#CCO)cc1C (single isomer, unassigned) [M.26, 3-(4-(1-ethyl-7-methyl-3-(pyridin-2-yl)-4,6,7,8-tetrahydro-1H-pyrazolo[3,4-e][1,4]thiazepin-4-yl)-3-methylphenyl)prop-2-yn-1-ol] | 1000 to 10000 |
| CCn1nc(-c2ccccn2)c2c1N[C@@H](C)CS[C@@H]2c1ccc(C#CC(C)(C)O)cc1C (single isomer, unassigned) [M.29, 4-(4-(1-ethyl-7-methyl-3-(pyridin-2-yl)-4,6,7,8-tetrahydro-1H-pyrazolo[3,4-e][1,4]thiazepin-4-yl)-3-methylphenyl)-2-methylbut-3-yn-2-ol] | 1000 to 10000 |
| CCn1nc(-c2ccccn2)c2c1N[C@H](C)CS[C@@H]2c1ccc(C#CC(C)(C)O)cc1C (single isomer, unassigned) [M.30, 4-(4-(1-ethyl-7-methyl-3-(pyridin-2-yl)-4,6,7,8-tetrahydro-1H-pyrazolo[3,4-e][1,4]thiazepin-4-yl)-3-methylphenyl)-2-methylbut-3-yn-2-ol] | 1000 to 10000 |
| CCn1nc(-c2ccccn2)c2c1N[C@@H](C)CS[C@@H]2c1ccc(CCCO)cc1C (single isomer, unassigned) [M.33, 3-(4-(1-ethyl-7-methyl-3-(pyridin-2-yl)-4,6,7,8-tetrahydro-1H-pyrazolo[3,4-e][1,4]thiazepin-4-yl)-3-methylphenyl)propan-1-ol] | 100 to 1000 |
| CCn1nc(-c2ccccn2)c2c1N[C@H](C)CS[C@@H]2c1ccc(CCCO)cc1C (single isomer, unassigned) [M.34, 3-(4-(1-ethyl-7-methyl-3-(pyridin-2-yl)-4,6,7,8-tetrahydro-1H-pyrazolo[3,4-e][1,4]thiazepin-4-yl)-3-methylphenyl)propan-1-ol] | 100 to 1000 |
| CCn1nc(-c2ccccn2)c2c1N[C@@H](C)CS[C@@H]2c1ccc(CCC(C)(C)O)cc1C (single isomer, unassigned) [M.37, 4-(4-(1-ethyl-7-methyl-3-(pyridin-2-yl)-4,6,7,8-tetrahydro-1H-pyrazolo[3,4-e][1,4]thiazepin-4-yl)-3-methylphenyl)-2-methylbutan-2-ol] | 100 to 1000 |
| CCn1nc(-c2ccccn2)c2c1N[C@H](C)CS[C@@H]2c1ccc(CCC(C)(C)O)cc1C (single isomer, unassigned) [M.38, 4-(4-(1-ethyl-7-methyl-3-(pyridin-2-yl)-4,6,7,8-tetrahydro-1H-pyrazolo[3,4-e][1,4]thiazepin-4-yl)-3-methylphenyl)-2-methylbutan-2-ol] | 100 to 1000 |

The remaining lines, values ahead:

| IC50 [nM] | SMILES |
| --- | --- |
| 1000 to 10000 | Cn1nc(-c2ccccn2)c2c1NCCSC2c1ccc(C(C)(C)O)cc1Cl (centres unmarked) |
| 1000 to 10000 | Cn1nc(-c2ccccn2)c2c1N(CC(=O)O)CCSC2c1ccc(Cl)cc1Cl (centres unmarked) |
| 1000 to 10000 | Cn1nc(-c2ccccn2)c2c1N(CC(N)=O)CCSC2c1ccc(Cl)cc1Cl (centres unmarked) |
| 1000 to 10000 | Cc1cccc(-c2nn(C)c3c2C(c2ccc(Cl)cc2C)SCCN3)n1 (centres unmarked) |
| 1000 to 10000 | Cn1nc(-c2ccc(C(=O)O)cn2)c2c1NCCSC2c1ccc(Cl)cc1Cl (centres unmarked) |
| 100 to 1000 | Cc1cc(CCC(C)(C)O)ccc1[C@H]1SC[C@H](C)Nc2c1c(-c1ccccn1)nn2C (single isomer, unassigned) [M.41, 4-(4-(1,7-dimethyl-3-(pyridin-2-yl)-4,6,7,8-tetrahydro-1H-pyrazolo[3,4-e][1,4]thiazepin-4-yl)-3-methylphenyl)-2-methylbutan-2-ol] |
| 1000 to 10000 | Cc1cc(CCC(C)(C)O)ccc1[C@H]1SC[C@@H](C)Nc2c1c(-c1ccccn1)nn2C (single isomer, unassigned) [M.43, 4-(4-(1,7-dimethyl-3-(pyridin-2-yl)-4,6,7,8-tetrahydro-1H-pyrazolo[3,4-e][1,4]thiazepin-4-yl)-3-methylphenyl)-2-methylbutan-2-ol] |
| 1000 to 10000 | CCn1nc(-c2ccccn2)c2c1N[C@@H](C)CS[C@@H]2c1ccc(C(N)=O)cc1C (single isomer, unassigned) [M.45, 4-(1-ethyl-7-methyl-3-(pyridin-2-yl)-4,6,7,8-tetrahydro-1H-pyrazolo[3,4-e][1,4]thiazepin-4-yl)-3-methylbenzamide] |
| 100 to 1000 | CCn1nc(-c2ccccn2)c2c1N[C@H](C)CS[C@@H]2c1ccc(C(N)=O)cc1C (single isomer, unassigned) [M.47, 4-(1-ethyl-7-methyl-3-(pyridin-2-yl)-4,6,7,8-tetrahydro-1H-pyrazolo[3,4-e][1,4]thiazepin-4-yl)-3-methylbenzamide] |
| 1000 to 10000 | Cc1cc(CCCO)ccc1[C@H]1SC[C@H](C)Nc2c1c(-c1ccccn1)nn2C (single isomer, unassigned) [M.49, 3-(4-(1,7-dimethyl-3-(pyridin-2-yl)-4,6,7,8-tetrahydro-1H-pyrazolo[3,4-e][1,4]thiazepin-4-yl)-3-methylphenyl)propan-1-ol] |
| 1000 to 10000 | Cc1cc(CCCO)ccc1[C@H]1SC[C@@H](C)Nc2c1c(-c1ccccn1)nn2C (single isomer, unassigned) [M.50, 3-(4-(1,7-dimethyl-3-(pyridin-2-yl)-4,6,7,8-tetrahydro-1H-pyrazolo[3,4-e][1,4]thiazepin-4-yl)-3-methylphenyl)propan-1-ol] |
| 100 to 1000 | Cc1cc(C#CCCO)ccc1[C@H]1SC[C@H](C)Nc2c1c(-c1ccccn1)nn2C (single isomer, unassigned) [M.53, 4-(4-(1,7-dimethyl-3-(pyridin-2-yl)-4,6,7,8-tetrahydro-1H-pyrazolo[3,4-e][1,4]thiazepin-4-yl)-3-methylphenyl)but-3-yn-1-ol] |
| 100 to 1000 | Cc1cc(C#CCCO)ccc1[C@H]1SC[C@@H](C)Nc2c1c(-c1ccccn1)nn2C (single isomer, unassigned) [M.56, 4-(4-(1,7-dimethyl-3-(pyridin-2-yl)-4,6,7,8-tetrahydro-1H-pyrazolo[3,4-e][1,4]thiazepin-4-yl)-3-methylphenyl)but-3-yn-1-ol] |
| 1000 to 10000 | Cc1cc(C(=O)Nc2cccnc2C)ccc1[C@H]1SC[C@H](C)Nc2c1c(-c1ccncn1)nn2C (single isomer, unassigned) [M.59, 4-(1,7-dimethyl-3-(pyrimidin-4-yl)-4,6,7,8-tetrahydro-1H-pyrazolo[3,4-e][1,4]thiazepin-4-yl)-3-methyl-N-(2-methylpyridin-3-yl)benzamide] |
| 1000 to 10000 | Cc1cc(C(=O)Nc2cccnc2C)ccc1[C@H]1SC[C@@H](C)Nc2c1c(-c1ccncn1)nn2C (single isomer, unassigned) [M.60, 4-(1,7-dimethyl-3-(pyrimidin-4-yl)-4,6,7,8-tetrahydro-1H-pyrazolo[3,4-e][1,4]thiazepin-4-yl)-3-methyl-N-(2-methylpyridin-3-yl)benzamide] |
